The record followed here is US12029728B2, “Small molecules with anti-protozoan activity” (New Mexico Tech University Research Park Corporation, priority 2018, dated 2024).

For one assay, the system named is T. cruzi epimastigotes. Kind of assay: T. cruzi epimastigote toxicity, visually assessed. As to conditions: 48 hours at 30° C. It counts as cell-based, Trypanosoma cruzi. As to the method: A 1:20 working dilution of T. cruzi epimastigotes was prepared in LIT1029 medium from a saturated (˜4×10^6 cells/mL) culture. 100 μL of the 1:20 working dilution was plated, and the epimastigotes were incubated with a compound of the disclosure at varying concentrations for 48 hours at 30° C. Following T. cruzi epimastigote treatment with a compound of the disclosure, the toxicity of compounds towards T. cruzi epimastigotes was visually assessed.

In assay [1] the test system is T. cruzi amastigotes and trypomastigotes. Kind of assay: Viability of tdTomato T. cruzi amastigotes and trypomastigotes, fluorescence. The assay is classed as cell-based, Trypanosoma cruzi. The note with it: 25 μM, 48 hours at 37° C. As to the method:
The viability of a mixture of T. cruzi amastigotes and trypomastigotes after exposure to 25 μM of the compounds of the disclosure was determined. 2×10^5 parasites/100 μL were plated in 96-well plates. Parasites expressing tdTomato were used to assess parasite viability using fluorescence measurements. Parasites were incubated with 25 μM of the compounds of the disclosure for 48 hours at 37° C. After the incubation period, the viability of amastigotes and trypomastigotes was assessed by measuring the fluorescence intensity at 510 nm-590 nm using a Tecan plate reader, where the presence of fluorescence indicated viable amastigotes/trypomastigotes.

Another assay relates to HeLa cells. The assay can be described thus: MTT cell survival assay, HeLa. As to conditions: Homo sapiens, 48 hours at 37° C., read-out: IC50 (GI50), cell survival. It counts as cell-based. As to the method: The GI50 (IC50), the concentration at which 50% cell survival is seen upon treatment with a compound, was determined for Compound 2 in Jurkat, U87, HeLa, and ARPE cells. Cells were cultured in 96-well plates and incubated with 50 μM, 25 μM, 12.5 μM, 6 μM, 3 μM, 1.5 μM, or 0 μM of Compound 2 for 48 hours at 37° C. Following the incubation period, a 3-(4,5-dimethylthiazol-2-yl)-2,5-diphenyl tetrazolium bromide (MTT) assay was performed. In brief, a 10% volume of MTT was added to each well. Cells were incubated with MTT for 2 hours, at which time cell supernatant was removed and cells were taken into 100 μL DMSO. The absorbance of cell solutions was then read at 595 nm. A decrease in absorbance indicated a decrease in cell survival.
For orientation: Tetrazolium assays rely on reduction of a dye to a coloured formazan, in cell work by metabolically active cells.

The subject of assay [2] is T. cruzi-infected ARPE cells. The assay can be described thus: Treatment of T. cruzi-infected ARPE cells, imaging. It counts as cell-based, Trypanosoma cruzi. The note with it: for amastigotes in ARPE cultures: 5 days, EVOS imaging; for T. cruzi seen in EVOS image: day 12. As to the method:
Four confocal dishes were prepared with 10,000 ARPE cells, which were adhered overnight at 37° C. The four dishes were ARPE control cells, non-infected but 5 μM Compound 2-treated cells, non-treated but infected cells, and infected cells treated with 5 μM Compound 2. For the infected dishes, ARPE media was removed and replaced with 2 mL of infectious amastigotes and trypomastigotes from the ARPE passaged plate. The dishes were then incubated for 2 hours at 37° C. The treated dishes were incubated with 5 μM Compound 2 for 5 days at 37° C., while untreated dishes were incubated in fresh media without Compound 2 for 5 days at 37° C. After the 5-day period, cells were washed 3 times in ARPE media and fixed with 1 mL 4% paraformaldehyde. Cells were visualized using an EVOS cell imaging system. Amastigotes appeared as small, dense, and mostly birefringent in images.
The experiment above was repeated using 1 μM Compound 2.
Four confocal dishes with 10,000 ARPE cells were prepared and adhered overnight at 37° C. The four dishes were: 1) ARPE control cells; 2) non-infected cells treated with 1 μM Compound 2; 3) untreated infected cells; and 4) T. cruzi-infected cells treated with 1 μM Compound 2. For the infected dishes, ARPE media was removed and replaced with 2 mL of infectious amastigotes and trypomastigotes expressing tdTomato (from ARPE passaged plate). The dishes were then incubated overnight for 7 days at 37° C. The untreated dishes were incubated in fresh media without Compound 2 for 7 days at 37° C. After the 7-day incubation period, cells were washed 3 times in ARPE media and fixed with 1 mL 4% paraformaldehyde. tdTomato fluorescence, which is indicative of viable T. cruzi, was then observed via fluorescence microscopy.
ARPE cells were plated in confocal dishes (20,000 cells per dish) and incubated overnight at 37° C. Cells were infected with T. cruzi by incubating cells with T. cruzi amastigotes and trypomastigotes expressing tdTomato (˜2×10^5 cells in total) for 24 hours at 37° C. Uninfected cells served as controls. Following the T. cruzi incubation period, extracellular parasites were removed, and the medium was replaced with DMEM/F12 culture media with or without 1 μM Compound 2. The cells were incubated further for 24 hours at 37° C. Cells were then treated two more times with fresh DMEM/F12 culture media with or without 1 μM Compound 2 and incubated for 24 hours at 37° C. Following fixation of cells in 4% paraformaldehyde, plates were imaged for tdTomato fluorescence, which is indicative of viable T. cruzi, such that the effects of repeated Compound 2 treatment could be compared to a single treatment with Compound 2.
ARPE cells were plated in confocal dishes (20,000 cells per dish) and incubated overnight at 37° C. Cells were infected with T. cruzi by incubating cells with T. cruzi amastigotes and trypomastigotes expressing tdTomato (˜2×10^5 cells in total) for 24 hours at 37° C. before washing dishes three times with DMEM/F12 culture media. Uninfected plates served as controls. The dishes were then treated with 2 μM Compound 2 or left untreated as a control and incubated further for 5 days at 37° C. The treated dish received a single treatment of Compound 2 on day 1. Dishes were washed twice with DMEM/F12 media and fixed in 4% paraformaldehyde before being imaged using confocal microscopy. […] The other Compound 2 dishes that were not incubated with T. cruzi a second time were used as controls. Following fixation of cells in 4% paraformaldehyde, tdTomato fluorescence of the cells was assessed using confocal microscopy.
ARPE cells were plated in confocal dishes (20,000 cells per dish) and incubated overnight at 37° C. Dishes were incubated with T. cruzi amastigotes and trypomastigotes expressing tdTomato (˜2×10^5 cells) for 48 hours at 37° C. Untreated cells served as controls. Cells were then washed 3 times with cell medium, treated with 5 μM Compound 2 or left untreated as a control and incubated further for 2 days at 37° C. […]

By IC50 is commonly meant the point on the concentration scale where inhibition reaches its midpoint. In the case of `O=C(NO)C(c1ccccc1)c1c(-c2ccc3ccccc3c2)[nH]c2ccccc12` (stereo not shown) [Compound 2, N-hydroxy-2-(2-(naphthalen-2-yl)-1H-indol-3-yl)-2-phenylacetamide], the “Concentration at which T. cruzi epimastigote death is greater than or equal to ~99%” value in the assay on T. cruzi epimastigotes amounted to 6 µM. Also, the “toxicity to T. cruzi amastigotes and trypomastigotes” value in assay [1] was “most toxic”. Besides, in the assay on HeLa cells, the IC50 was 13.7 ± 0.75 µM. The “amastigotes in ARPE cultures” value in assay [2] (1 μM) and in assay [2] (5 μM) was “absent” throughout. The “intracellular T. cruzi parasites” value in assay [2] (1 μM, 7 days, tdTomato fluorescence) is on record as “eradicated”. In addition, in assay [2] (2 μM, second incubation with T. cruzi), the “eradication of intracellular T. cruzi and reinfection” value is “eradicated intracellular T. cruzi and protected cells from reinfection”. The “T. cruzi in ARPE cells (CherryTomato fluorescence)” value in assay [2] (2 μM, two days) is listed as “eradicated T. cruzi”. Further, the “T. cruzi seen in EVOS image” value is listed as “Small amounts of T. cruzi dots were observed” in assay [2] (5 μM for 2 days) and “could not be seen” in assay [2] (10 μM for 2 days). Besides, in assay [2] (5 μM, 2 days, after 48 hours infection), the intracellular parasites entry is listed as “killed intracellular parasites”. In addition, in assay [2] (4 treatments with 2 μM over 4 days), the “state of infected ARPE cells after treatment” value was “cured”. Moreover, the “T. cruzi-infected cell foci in fluorescence images” value in assay [2] (5 (μM) for 2 days, day 17) was “Only two T. cruzi-infected cell foci were found”. Moreover, in assay [2] (10 (μM) for 2 days, day 17), the tdTomato fluorescence entry is reported as “no tdTomato fluorescence was observed”. In addition, the “long term treatment efficacy against T. cruzi infection” value in assay [2] (daily 2 μM for 5 days, then 5 days without treatment) is reported as “long-term full cure”. Besides, the parasite death entry in assay [2] (one treatment with 2 μM, 5-day incubation) is listed as “full parasite death”. The “T. cruzi infection after treatment” value in assay [2] (repeated treatment (three times) with 1 μM, every 24 hours) was “eradicated the T. cruzi infection”; in assay [2] (single treatment with 1 μM) it was “only a small portion of the T. cruzi infection remaining”. Moreover, in assay [2] (single dose of 2 μM, 2 days), the “intracellular T. cruzi and re-infection” value was “killed intracellular T. cruzi and protected the cells from re-infection”.
